From the Deep4Chem optical property database
Several values for one entry are separate records, joined by “and”; a condition that tells them apart may be missing. Equal values may be shown once. Blank lines part the entries; values can stand above or below the molecule they belong to.

Test: solvent given as SMILES

emission maximum (in ClC(Cl)Cl): 571 nm
SMILES: CC(C)(C)[Si](C)(C)C#Cc1c2c(=O)c3ccccc3c2c(C#C[Si](C)(C)C(C)(C)C)c2c(=O)c3ccccc3c12

emission maximum (in C1CCOC1): 360 nm
SMILES: O=C1c2cc(-c3ccccc3)ccc2-c2ccc(-c3ccccc3)cc21

emission maximum (in ClCCl): 465 nm
SMILES: CC(C)(C)c1cc2ccc3c(N(c4ccc(F)cc4)c4ccc(F)cc4)cc(N(c4ccc(F)cc4)c4ccc(F)cc4)c4ccc(c1)c2c34

emission maximum (in ClC(Cl)Cl): 730 nm
SMILES: COc1ccc2c(c1)CCc1c(-c3ccccc3)c3n(c1-2)[B-](F)(F)[N+]1=c2ccc4ccccc4c2=C(c2ccccc2)C1=N3

emission maximum (in ClCCl): 585 nm
SMILES: CC[C@H](C)COc1ccc(C2=C3C(C)=C(c4ccc5ccc6cccc7ccc4c5c67)C(C)=[N+]3[B-](F)(F)n3c(C)c(-c4ccc5ccc6cccc7ccc4c5c67)c(C)c32)cc1

emission maximum (in CCO): 592 nm
SMILES: CCOC(=O)CCCCCn1c2ccc(OC)cc2c(=O)c2cc3c(cc21)c(=O)c1cc(OC)ccc1n3CCCCCC(=O)OCC

emission maximum (in ClCCl): 490 nm
SMILES: Cc1cc(C)n2c1C=[N+]1[N+](=C3C=NC=CN3[B-]1(F)F)[B-]2(F)F

emission maximum (in C1CCCCC1): 398 nm
SMILES: COc1ccc2c(c1)C(C)(C)c1c-2c2ccc(OC)cc2c2cc(OC)ccc12

emission maximum (in CC#N): 464 nm
SMILES: COc1ccc2cc(/C=C/c3ccccc3)c(=O)oc2c1

emission maximum (in O): 592 nm
SMILES: CC[n+]1c(-c2ccccc2)c2cc(N)ccc2c2ccc(-n3cccc3)cc21

emission maximum (in CCO): 438 nm
SMILES: CCN(CC)c1cc2oc3cc(O)c(F)cc3c(=O)c2cc1F

emission maximum (in ClCCl): 412 nm
SMILES: c1ccc(B2Nc3cc4c(cc3-c3sccc32)NB(c2ccccc2)c2ccsc2-4)cc1

emission maximum (in ClC(Cl)Cl): 482 nm
SMILES: CCCCCCN1C(=O)c2cccc3c(-c4ccc(Cl)s4)ccc(c23)C1=O

emission maximum (in ClC(Cl)Cl): 392 nm
SMILES: C(#Cc1ccccc1)C(C#Cc1ccccc1)=Cc1ccccc1

emission maximum (in CC#N): 390 nm | emission maximum (in CCCCOCCCC): 388 nm | emission maximum (in CO): 388 nm
SMILES: COc1nc(Nc2ccc3ccc4cccc5ccc2c3c45)nc(OC)n1

emission maximum (in ClCCl): 520 nm
SMILES: c1ccc(-c2ccc3c4ccc(-c5ccccc5)c5c(-c6ccccc6)ccc(c6ccc(-c7ccccc7)c2c36)c54)cc1

emission maximum (in C1COCCO1): 555 nm | emission maximum (in CC#N): 648 nm | emission maximum (in ClCCl): 602 nm
SMILES: CN(C)c1ccc(/C=C/c2nc3ccc(Br)cc3nc2-c2ccccc2)cc1

emission maximum (in ClC(Cl)Cl): 446 nm
SMILES: F[B-]1(F)OC(c2ccc(C(F)(F)F)cc2)=Cc2c3ccccc3c3ccccc3[n+]21

emission maximum (in ClCCl): 522 nm
SMILES: CCCCCCCCCCCCN1C(=O)c2c(c3ccc4cc(-c5ccc(C(F)(F)F)cc5)c(OC)cc4c3c3c2ccc2cc(-c4ccc(C(F)(F)F)cc4)c(OC)cc23)C1=O

emission maximum (in CC#N): 344 nm | emission maximum (in CCOC(C)=O): 345 nm | emission maximum (in CO): 350 nm | emission maximum (in O): 351 nm
SMILES: O=c1[nH]c(=O)n([C@@H]2O[C@H](CO)[C@@H](O)[C@H]2O)c2ccsc12

emission maximum (in C1COCCO1): 601 nm
SMILES: CC(C)CN1C(=O)/C(=C/c2ccc([N+](=O)[O-])cc2)C=C1c1ccccc1

emission maximum (in C1CCOC1): 495 nm
SMILES: CC(C)(C)c1ccc(C2=Cc3cc4c(cc3P2(=O)c2ccccc2)C=C(c2ccc(C(C)(C)C)cc2)P4(=O)c2ccccc2)cc1 (stereo not drawn)

emission maximum (in ClC(Cl)Cl): 732 nm
SMILES: COc1ccc(C2=[N+]3C(=Nc4c(-c5ccccc5)c5c(n4[B-]3(F)F)-c3ccc(OC)cc3CC5)C(c3ccccc3)=C2)cc1

emission maximum (in C1CCCCC1): 435 nm | emission maximum (in CC#N): 588 nm | emission maximum (in CC(C)O): 611.34 nm | emission maximum (in CO): 676 nm | emission maximum (in CS(C)=O): 587.85 nm | emission maximum (in ClC(Cl)Cl): 524 nm | emission maximum (in c1ccccc1): 487.85 nm
SMILES: CC(=O)c1ccc(-c2nc3ccc(N(C)C)cc3s2)cc1

emission maximum (in C1CCCCC1): 427 nm | emission maximum (in CC#N): 445 nm | emission maximum (in CO): 440 nm | emission maximum (in ClCCl): 443 nm
SMILES: COc1c2ccccc2c(OC)c2c1c1c(C)ccc(OC)c1n2C

emission maximum (in CC#N): 682 nm
SMILES: F[B-]1(F)n2c(-c3ccccc3)cc(-c3ccccn3)c2N=C2C(c3ccccn3)=CC(c3ccccc3)=[N+]21

emission maximum (in ClCCl): 370 nm
SMILES: CC1(C)c2ccccc2-c2cc3c(cc21)c1ccccc1n3-c1ccncc1

emission maximum (in CC#N): 539 nm
SMILES: O=c1oc2ccccc2cc1/C=C/c1ccc([N+](=O)[O-])cc1

emission maximum (in ClCCl): 770 nm
SMILES: CCN(CC)c1ccc2c(-c3ccccc3C(=O)O)c3c([o+]c2c1)/C(=C/c1ccc(N2CCCC2)s1)CCC3

emission maximum (in ClC(Cl)Cl): 392 nm
SMILES: O=C1[C@@H]2[C@H](C(=O)N1c1cccc3cc4ccccc4cc13)[C@H]1C[C@@H]2c2c1c(-c1ccccc1)c1ccccc1c2-c1ccccc1

emission maximum (in ClC(Cl)Cl): 360 nm
SMILES: C[Si](C)(C)c1sc([Si](C)(C)C)c2c1sc1c2sc2sc3sc4c(sc5c([Si](C)(C)C)sc([Si](C)(C)C)c54)c3c21

The remaining lines, values behind:

SMILES: CCCCN(CCCC)c1ccc2c(c1)C#CC#Cc1cc(C(F)(F)F)ccc1C#Cc1cc(c3cc1C#Cc1ccc(C(F)(F)F)cc1C#CC#Cc1cc(N(CCCC)CCCC)ccc1C#C3)C#C2
emission maximum (in ClCCl): 550 nm | emission maximum (in c1ccccc1): 503 nm

SMILES: O=C1c2cc(-n3c4ccccc4c4ccccc43)c(-n3c4ccccc4c4ccccc43)cc2C(=O)N1c1ccccc1
emission maximum (in Cc1ccccc1): 510 nm

SMILES: CC1=CC(C)=[N+]2C1=C(c1ccccc1)c1c(C)cc(C)n1[B-]2(F)F
emission maximum (in C1CCOC1): 512 nm and 510 nm | emission maximum (in CC#N): 508 nm | emission maximum (in CC(=O)C(C)(C)C): 511 nm | emission maximum (in CC(C)=O): 509 nm | emission maximum (in CCCCCC): 511 nm | emission maximum (in CCOC(C)=O): 510 nm | emission maximum (in CO): 509 nm and 510 nm | emission maximum (in Cc1ccccc1): 516 nm | emission maximum (in ClCCl): 513 nm

SMILES: CC1(C)c2ccccc2N(c2ccccc2)c2ccc(-c3nc(-c4ccccc4)nc(-c4ccccc4)n3)cc21
emission maximum (in Cc1ccccc1): 430.68 nm | emission maximum (in O=P(c1ccccc1)(c1ccccc1)c1ccccc1Oc1ccccc1P(=O)(c1ccccc1)c1ccccc1): 452 nm

SMILES: FC(F)(F)c1ccc(-c2nnc(-c3cc(-n4c5ccccc5c5ccccc54)c(-n4c5ccccc5c5ccccc54)cc3-c3nnc(-c4ccc(C(F)(F)F)cc4)o3)o2)cc1
emission maximum (in CC#N): 544.97 nm | emission maximum (in Cc1ccccc1): 487 nm | emission maximum (in ClCCl): 519.92 nm

SMILES: CC(C)(C)c1ccc2c(c1)[nH]c1c3[nH]c4cc(C(C)(C)C)ccc4c3c3nsnc3c21
emission maximum (in CN(C)C=O): 507 nm | emission maximum (in Cc1ccccc1): 472 nm | emission maximum (in ClCCl): 502 nm

SMILES: C(#Cc1nc(C#Cc2ccccc2)c(C#Cc2ccccc2)c(C#Cc2ccccc2)c1C#Cc1ccccc1)c1ccccc1
emission maximum (in ClCCl): 438 nm

SMILES: C#Cc1ccc2ccc3cccc4ccc1c2c34
emission maximum (in C1CCCCC1): 383 nm | emission maximum (in CC#N): 384 nm | emission maximum (in CO): 383 nm | emission maximum (in ClCCl): 384 nm

SMILES: Cc1cc(C)c2c(c1)c1cc(C)cc(C)c1n2-c1ccc2c(c1)Sc1cc3c(cc1B2c1c(C(C)C)cc(C(C)C)cc1C(C)C)B(c1c(C(C)C)cc(C(C)C)cc1C(C)C)c1ccccc1S3
emission maximum (in Cc1ccccc1): 465 nm | emission maximum (in O=P(c1ccccc1)(c1ccccc1)c1ccc2oc3ccc(P(=O)(c4ccccc4)c4ccccc4)cc3c2c1): 483 nm

SMILES: CCC1=C(C)C2=Cc3c(I)c(I)c(I)n3[B-](F)(F)[N+]2=C1C
emission maximum (in C1CCCCC1): 551.5 nm | emission maximum (in CC(C)=O): 553 nm | emission maximum (in CCO): 557 nm | emission maximum (in CCOC(C)=O): 553.5 nm | emission maximum (in CO): 554 nm | emission maximum (in OCC(F)(F)F): 550.5 nm

SMILES: CC1(C)c2ccccc2-c2ccc(N(c3ccccc3)c3ccc4c(c3)C(C)(C)c3cc(-c5cc6ccccc6c6c5oc5ccccc56)ccc3-4)cc21
emission maximum (in C1CCOC1): 469 nm

SMILES: CN(C)c1ccc(/C=C2\CC/C(=C\c3ccc(N(C)C)cc3)C2=O)cc1
emission maximum (in C1CCOC1): 529 nm | emission maximum (in C1COCCO1): 493 nm | emission maximum (in CC#N): 587 nm | emission maximum (in CC(C)=O): 565 nm | emission maximum (in CC(C)O): 590 nm | emission maximum (in CCO): 613 nm | emission maximum (in CCOC(C)=O): 528 nm | emission maximum (in CN(C)C=O): 575 nm | emission maximum (in CO): 635 nm | emission maximum (in CS(C)=O): 588 nm | emission maximum (in Cc1ccccc1): 482 nm | emission maximum (in ClC(Cl)(Cl)Cl): 478 nm | emission maximum (in ClC(Cl)Cl): 543 nm | emission maximum (in ClCCl): 547 nm | emission maximum (in S=C=S): 497 nm

SMILES: CN(C)c1ccc(C2=Nc3sc4cc(Cl)ccc4[n+]3[B-](F)(F)O2)cc1
emission maximum (in C1CCOC1): 477 nm | emission maximum (in CC#N): 491 nm | emission maximum (in CC(C)=O): 488 nm | emission maximum (in Cc1ccccc1): 456 nm | emission maximum (in ClCCl): 473 nm

SMILES: CCCC1=Cc2nc1ccc1[nH]c(cc1CCC)c1nc(c(OC)cc3[nH]c2cc3CCC)C(CCC)=C1
emission maximum (in Cc1ccccc1): 688 nm

SMILES: C1=Cc2ccccc2C(=Cc2ccc(-c3ccc(C=C4c5ccccc5C=Cc5ccccc54)cc3)cc2)c2ccccc21
emission maximum (in C1CCOC1): 405 nm

SMILES: O=P1(c2ccccc2)C(c2ccc(N(c3ccccc3)c3ccccc3)cc2)=Cc2ccccc21 (stereo not drawn)
emission maximum (in C1CCOC1): 521 nm | emission maximum (in CC#N): 577 nm | emission maximum (in CN(C)C=O): 566 nm | emission maximum (in Cc1ccccc1): 490 nm | emission maximum (in ClC(Cl)Cl): 529 nm | emission maximum (in ClCCl): 544 nm

SMILES: CCCCCCCCCCCCn1nnc(-c2ccc(C#Cc3ccc(C#Cc4ccc(-c5nnn(CCCCCCCCCCCC)n5)cc4)c4nc5c6ccccc6c6ccccc6c5nc34)cc2)n1
emission maximum (in C1CCOC1): 495 nm | emission maximum (in Cc1ccccc1): 488 nm | emission maximum (in ClCCl): 502 nm

SMILES: CCN(CC)c1ccc(OC)c(C=O)c1
emission maximum (in CC#N): 548 nm | emission maximum (in CC(C)O): 600 nm | emission maximum (in CCCCCC): 470 nm | emission maximum (in CCOC(C)=O): 518 nm | emission maximum (in CO): 645 nm | emission maximum (in CS(C)=O): 558 nm | emission maximum (in Cc1ccccc1): 509 nm | emission maximum (in ClCCl): 538 nm

SMILES: O=P1(c2ccccc2)c2cc(N3c4ccccc4Sc4ccccc43)ccc2-c2ccc(N3c4ccccc4Sc4ccccc43)cc21
emission maximum (in Cc1ccccc1): 557 nm | emission maximum (in c1ccc2c(c1)c1ccccc1n2-c1ccc(-c2ccc(-n3c4ccccc4c4ccccc43)cc2)cc1): 554 nm

SMILES: COc1ccc(-c2ccc3c(c2)c2cc(-c4ccc(OC)cc4)ccc2n3-c2ccc(C(=O)c3ccc4sc5ccccc5c4c3)cc2)cc1
emission maximum (in Cc1ccccc1): 460.87 nm | emission maximum (in c1cc(-n2c3ccccc3c3ccccc32)cc(-n2c3ccccc3c3ccccc32)c1): 462 nm

SMILES: CN(C)c1ccc(C(=O)Nc2cccc(Cl)c2)cc1
emission maximum (in C1CCCCC1): 338 nm | emission maximum (in C1CCOC1): 455 nm | emission maximum (in CC#N): 496 nm | emission maximum (in CCOCC): 445 nm
